Reference: patent publication US20110055943A1, “NOVEL THERAPEUTIC TARGETS IN INFLAMMATORY BOWEL DISEASE” (SALIX PHARMACEUTICALS, LTD., priority 2007, published 2011)

Tests used:
[1] = system: PXR target genes (CYP3A11, GSTA1, MRP2, OATP2); test: qPCR analysis of PXR target genes in hPXR mice
Protocol: RIF, a specific human PXR ligand, was used as positive control at 25 mg/kg/day (p.o.) for 3 days. […] Liver and small intestine were collected and frozen at −80° C. for further analysis.
RNA was extracted from different tissues using TRIzol reagent (Invitrogen, Carlsbad, Calif.). qPCR was performed using cDNA generated from 1 μg total RNA with SuperScript II Reverse Transcriptase kit (Invitrogen). PCR reactions were carried out using SYBR green PCR master mix (SuperArray) in an ABI Prism 7900HT Sequence Detection System (Applied Biosystems, Foster City, Calif.). Values were quantified using the Comparative CT method, and samples normalized to β-actin.

CYP3A = test: Pharmacokinetics of MDZ in hPXR mice pretreated with RIFax; details: hPXR mice, RIFax 10 mg/kg/day 3 days, MDZ 2.5 mg/kg oral
Protocol: Blood samples were collected from suborbital veins using heparinized tubes at pre-dose, 5, 10, 20, 30, 60, and 90 min after administration of MDZ. Serum was separated by centrifugation at 8,000 g for 10 min. For MDZ and 1′-OH-MDZ extraction, 50 μl of serum was mixed with 150 μl of phosphate-buffered saline, 200 μl of ethyl acetate, and 200 μl of methyl t-butyl ether. The mixture was centrifuged at 3,000 rpm for 5 min at 4° C. The organic layer was then transferred to a new tube, dried with N2, and reconstituted in 100 μl of 70% aqueous methanol and 30% H2O containing 0.1% formic acid. […] Pharmacokinetic parameters for MDZ and 1′-OH-MDZ were estimated from the plasma concentration-time data by a non-compartmental approach using WinNonlin (Pharsight, Mountain View, Calif.). The area under the serum concentration-time curve (AUC0-90 min) was calculated by the trapezoidal rule. The maximum concentration in serum (Cmax) and its corresponding time (Tmax) were obtained from the original data.

human PXR = biological target: T1, human PXR (Homo sapiens, UniProt O75469); test: Cell-based reporter assay, DPX2 (hepG2) cell line, luciferase; details: for increase in luciferase activity vs DMSO control: 24 h, DPX2 cells
T1 construct: host or cells: DPX2 (HepG2 derivative)
T1 sequence (O75469 1-434): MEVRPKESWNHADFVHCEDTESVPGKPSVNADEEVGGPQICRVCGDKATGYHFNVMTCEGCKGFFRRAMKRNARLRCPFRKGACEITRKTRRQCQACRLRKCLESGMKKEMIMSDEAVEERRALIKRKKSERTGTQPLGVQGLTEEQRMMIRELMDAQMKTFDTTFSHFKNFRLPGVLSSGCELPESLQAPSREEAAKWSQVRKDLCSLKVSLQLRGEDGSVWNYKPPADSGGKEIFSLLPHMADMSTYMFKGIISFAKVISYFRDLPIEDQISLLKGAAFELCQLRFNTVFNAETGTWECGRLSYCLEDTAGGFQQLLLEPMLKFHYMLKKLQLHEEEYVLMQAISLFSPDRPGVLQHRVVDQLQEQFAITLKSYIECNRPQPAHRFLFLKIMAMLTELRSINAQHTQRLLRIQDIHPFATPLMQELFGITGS
Protocol: A hepG2 cell line (DPX2) with stable expression of recombinant human PXR and a PXR-response element cloned in a luciferase vector was obtained from Puracyp Inc. (Carlsbad, Calif.). […] The cells were seeded according to the distributor's instruction. […] For cell-based reporter assay of nuclear receptors CAR, PPARα, PPARγ, and FXR, HCT116 cells were plated on 24-well plates (5×10^4 cells/well, cultured in DMEM containing 10% FBS), and transfected with the various expression vectors using Fugene transfection reagent (Roche, Indianapolis, Ind.). […] The mouse FXR vector was provided by Dr Christopher J. Sinal. […] A standard dual luciferase assay was used and normalized to a cotransfected control reporter (Promega, Madison, Wis.). Each in vitro assay was repeated at least three times.

CYP3A4 = details: human hepatocytes; cited from earlier work
[2] = Intestinal tract distribution of RIF and RIFax in mice (intestinal contents, LC-MS/MS); format: in vivo; details: mice; for intestinal tract concentration compared with RIF: oral treatment
Protocol: The maximum concentration in serum (Cmax) was obtained from the original data. […] Intestinal contents were weighted, and homogenized in methanol (100 mg/ml). The homogenate was centrifuged at 14,000 rpm for 10 min at 4° C.
The mass spectrometer was operated in the turbo ion spray mode with positive ion detection. The turbo ion spray temperature was maintained at 300° C., and a voltage of 4.8 kV was applied to the sprayer needle. N2 was used as the turbo ion spray and nebulizing gas.

[3] = small intestine, 25 mg/kg/day p.o. 3 days

Question: With COC1/C=C/OC2(C)Oc3c(C)c(O)c4c(O)c(c5c(nc6cc(C)ccn65)c4c3C2=O)NC(=O)/C(C)=C\C=C\C(C)C(O)C(C)C(O)C(C)C(OC(C)=O)C1C (stereo not drawn) [RIFax, 4-Deoxy-4′-methylpyrido[1′,2′-1,2]imidazo[5,4-c]rifamycin SV] as the compound, how does the “CYP3A11, GSTA1, MRP2 and OATP2 mRNAs in small intestine” value ([1]; 25 mg/kg/day p.o. 3 days) read?
Answer: Its value is “all up-regulated”.

Question: And the “MRP2 in the gut” value ([1]; 25 mg/kg/day p.o. 3 days)?
Answer: The value was “only modestly induced”.

Question: What about the “PXR target genes in the intestine” value ([1]; intestine, oral treatment) of the same compound?
Answer: The value was “significant induction”.

Question: And the GSTA1 in liver ([1]; liver, 25 mg/kg/day p.o. 3 days)?
Answer: Its GSTA1 in liver is “increased”.

Question: And the “effect on hepatic PXR target genes” value ([1]; liver, oral treatment)?
Answer: The value was “no significant effect”.

Question: What about the “Intestinal CYP3A11 increase compared to vehicle-treated mice” value [1, 3] of the same compound?
Answer: Its value is roughly 4 fold.

Question: And the “Intestinal GSTA1 mRNA increase” value [1, 3]?
Answer: The value was 172%.

Question: And the “Intestinal OATP2 mRNA increase” value [1, 3]?
Answer: Its value is 3.4 fold.

Question: And the “intestinal MRP2 mRNA” value [1, 3]?
Answer: Its value is “significant up-regulation”.

Question: What about the “Tmax of 1′-OH-MDZ in RIFax pretreated mice vs control group” value (CYP3A) of the same compound?
Answer: The value was “significantly shorter”.

Question: And the “increase in luciferase activity vs DMSO control” value (from here on “increase in luciferase activity”) (human PXR; 1 μM)?
Answer: Its value is 2.1 fold.

Question: And the “increase in luciferase activity” value (human PXR; 10 μM)?
Answer: Its value is 6.7 fold.

Question: What about the “increase in luciferase activity” value (human PXR; 100 μM) of the same compound?
Answer: The value was 25.2 fold.

Question: What about the EC50 (human PXR; DPX2 cell line, read-out: EC50 for activation of hPXR) of the same compound?
Answer: Its EC50 is roughly 20 µM.

Question: What about the “CYP3A4 in a human hepatocyte model” value (CYP3A4) of the same compound?
Answer: The value was “induction”.

Question: And the “concentration in the intestinal tract (intestinal content)” value ([2]; 10 mg/kg single dose p.o.)?
Answer: Its value is “up to 150 ug/g”.

Question: And the “concentration in the intestinal tract (intestinal content), molar” value ([2]; 10 mg/kg single dose p.o.)?
Answer: The value was “about 200 μM”.

Question: And the “intestinal tract concentration compared with RIF” value [2]?
Answer: The value was “significantly higher”.

Question: What about the “intestinal tract concentration compared with RIF” value ([2]; listed as Rifaximin) of the same compound?
Answer: Its value is “highly concentrated”.

Question: What about the “concentration in the small intestine (content)” value ([2]; single oral dose 10 mg/kg) of the same compound?
Answer: The value was roughly 160 µg/g.

Question: What about the “time the small intestine concentration lasted following administration” value ([2]; single oral dose 10 mg/kg) of the same compound?
Answer: The value was 9 h.
